Reference: patent US20260335468A1, “MOLECULAR RADIOAFTERGLOW PROBES FOR CANCER RADIODYNAMIC THERANOSTICS” (NANYANG TECHNOLOGICAL UNIVERSITY, priority 2023, published 2026)

Columns and labels:
[1] = In vivo limit of detection of subcutaneously injected IDPASu (radio afterglow); design: species or system mouse (BALB/c nude); conditions: subcutaneous injection, X-ray 5 mGy, LOD=3σ/k
Experimental: To test the LOD of IDPASu for in vivo RAI, 20 μl of the mixture solution of IDPASu at different concentrations (100.0, 50.0, 20.0, 10.0, 5.0, 1.0, 0.5 and 0 μM) and solubilizing agent (2-carboxyethyl)-o-cyclodextrin sodium salt (β-CD) at 100 μM was subcutaneously injected into the left flank of BALB/c nude mice (six weeks old). After 30 min, the left flank of mice were irradiated with X-rays at 5 mGy (250 μGy s^−1 for 20 s) as the other areas were protected by a 3.4-mm-thick lead shield with a notch under the X-ray irradiation. Radio afterglow signals were recorded. The detection limit was calculated using this equation: LOD=3σ/k, where a represents the s.d. of blank and k implies the slope of the radio afterglow intensities.

[2] = HPLC analysis of IDPASu after X-ray irradiation; type: physicochemical
Experimental: HPLC purification and analyses were performed with an Agilent 1260 system using methanol/H2O or acetonitrile/H2O as an eluent. X-ray irradiation was conducted with MOXTEK MAGPRO (Moxtek, Inc. 452 West 1260 North Orem, UT 84057) and the dose was calibrated by RAYSAFE R/F X2 X (FLUKE, USA). White-light irradiation was used by a xenon lamp PLS-SEX300D (Beijing Perfectlight Technology Co., Ltd.).
To study the radio afterglow mechanism, the sample of IDPASu after X-ray irradiation was analysed with HPLC and high-resolution mass spectrometry.

[3] = test system: U87MG subcutaneous tumor; assay: X-ray-induced afterglow in U87MG subcutaneous tumor-bearing mice; type: in vivo, Balb/c nude mice; conditions: local injection
Experimental: For in vivo RAI by IDPASu, subcutaneous U87-tumour-bearing mice were intratumorally injected with IDPASu(100 μM, […]) solubilized with P-cyclodextrin (100 μM). Each group has three mice. At different post-injection timepoints (0, 0.5, 1.0, 2.0, 4.0, 6.0, 8.0, 12.0, 16.0 and 24.0 h), the tumours were irradiated with X-rays (5 mGy, 250 μGy s^−1 for 20 s), followed by radio afterglow detection using the IVIS imaging system under the bioluminescence mode with an open filter and acquisition time of 120 s. Tumour-free areas were protected by a 3.4-mm-thick lead shield with a notch. […] Radio afterglow signals from brain tumours were recorded with the IVIS imaging system under the bioluminescence mode with an open filter and acquisition time of 120 s. […] The tumour sizes were calculated as per the above-mentioned equation, showing ~0 mm^3 for 1 day post-implantation, 6 mm^3 (tumour diameter, 2.3 mm) for 5 days post-implantation, 22 mm^3 for 10 days post-implantation, 43 mm^3 for 20 days post-implantation and 77 mm^3 for 30 days post-implantation. At 15 min post-intraperitoneal injection of aqueous d-luciferin sodium salt (500 μmol kg^−1) solution into mice with different tumour sizes, the bioluminescence signals from the tumour sites were recorded with the IVIS imaging system under the bioluminescence mode with an open filter and automatic acquisition time. […]

[4] = ·OH and other ROS detection (HPF) upon X-ray irradiation; type: physicochemical
Experimental: To study other ROS generation, fluorescence sensors DHR123 (for O2·^− detection) and HPF (for ·OH detection) were used. For O2·^− detection, DHR123 (10 PM) was added to a solution of IDPASu (10 M) in PBS (0.01 M pH 7.4, 50% DMSO), followed by X-ray irradiation at different doses of 5 mGy (250 μGy s^−1 for 20 s) and 2 Gy (100 mGy s^1 for 20 s). The fluorescence changes in DHR123 were recorded at λex of 505 nm and λem of 534 nm. For ·OH detection, HPF ([…]) was added in a solution of IDPASu (10 M) in PBS (0.01 M, pH 7.4, 50% DMF), followed by X-ray irradiation at different doses, namely, 5 mGy (250 μGy s^−1 for 20 s) and 2 Gy (100 mGy s^−1 for 20 s). The fluorescence changes in HPF were collected at ex of 450 nm and λem of 515 nm. The ROS production was calculated by the corresponding standard curve.

[5] = ^1O2 generation at tissue depth (X-ray or light through chicken breast tissue); type: physicochemical
Experimental: To study ^1O2 generation, a mixture of DPAS or IDPAS (100 M) and TEMP (10 mM) in PBS (0.01 M, pH 7.4, 50% DMSO) was irradiated by X-rays at 2 Gy (100 mGy s^−1 for 20 s) or 5 mGy (250 μGy s^−1 for 20 s). The ESR signals of the mixture were recorded with a Bruker A300 instrument. The ESR signal of the free radical 2,2,6,6-tetramethyl-1-piperidinyloxyl (g=2.0060) was generated by the reaction of ^1O2 with TEMP. The ^1O2 quencher NaN3 (1 mM) was added to validate the afterglow mechanism of IDPASu. Additionally, other commercially available radio sensitizers (such as acridine orange, hematoporphyrin and verteporfin) were measured and compared. The procedure of block depths was similar to that of the tissue penetration depth study and the ^1O2 generation for different depth tissues was measured. The ESR signal changes of MRAP in the absence or presence of CatB were measured in a similar way. The ESR signals of 2,2,6,6-tetramethyl-1-piperidinyloxyl from the reaction of ^1O2 with TEMP were plotted as a function of the concentration of ^1O2, which was generated by the addition of NaOCl to H2O2. This generated the standard curve between the ESR intensity and ^1O2 concentration.
The deep-tissue radiodynamic process of IDPASu was tested by measuring ^1O2 generation at different tissue depths and compared with photosensitization (FIG. 11c).

[6] = X-ray 2 Gy, 100 mGy s^−1 for 20 s

COC(=C1C2CC3CC(C2)CC1C3)c1cc(O)c(I)cc1/C=C/C1=CC(=C(C#N)C#N)c2ccccc2S1 [IDPASu]
limit of detection (LOD), in vivo imaging [1]: 49 nM
conversion yield to activated IDPASu (peak at 6.0 min) [2, 6]: 7.6%
conversion yield to dioxetane compound (peak at 14.8 min) [2, 6]: 3.3%
luminophore consumed by one cycle of irradiation ([2]; one cycle at 250 μGy s^−1 for 20 s, HPLC): ~ 3%
Intensity per dose per mouse [3]: 1.27 × 10^6 (p/s/cm2/sr)/(μg)
HPF+IDPASu (+X-ray) versus HPF+IDPASu (−X-ray), ·OH ([4]; 250 μGy s^−1 or 100 mGy s^−1 for 20 s): not significant
other ROS generation ([4]; X-ray irradiation): undetectable
decrease of ^1O2 concentration at tissue depth of 1 cm, X-ray ([5]; X-ray through 1 cm tissue): ~ 30%
radiodynamic ^1O2 generation at tissue depth of 15 cm ([5]; X-ray through 15 cm tissue): still inducible
^1O2 generation at tissue depth of 1 cm, light irradiation ([5]; light through 1 cm tissue): close to the background
